{"source": "paper PMC9838834", "about": "“Improvement of Antialveolar echinococcosis efficacy of novel Albendazole-Bile acids Derivatives with Enhanced Oral Bioavailability” (PLOS Neglected Tropical Diseases, 2023)", "key": {"[1]": {"assay": "Water solubility, stated in response to reviewers", "type": "physicochemical", "description": "ABZ and ABZ-BA are both water-insoluble, so we suspended the drug in a 0.5% sodium carboxymethyl cellulose (CMC-Na) aqueous solution. This method of administration has been widely used for the oral administration of poorly soluble drugs. This method has been adopted by our research group in previous studies, and many studies have been published that use this method, including the following: […]"}, "[2]": {"assay": "Wide-angle x-ray diffraction (WAXRD) of powders", "type": "physicochemical", "settings": "powder, 2θ 5 to 35°", "procedure": "The ABZ and ABZ-BA powders were characterized by an X’Pert3 Powder X-ray diffractometer (PANalytical, Inc. U.K.), a voltage of 40 kV, and a current of 40 mA. The samples were scanned from 2θ = 5 to 35° at a scanning speed of 1°/min, and the step size was at 0.01° 2θ [10]."}, "protoscolex (PSCs) [3]": {"system": "protoscolex (PSCs)", "assay": "Detection of protoscolex mortality / survival rate in vitro (trypan blue)", "type": "cell-based, E. multilocularis", "settings": "for inhibitory effect on PSC survival rate: 7 days, ABZ 10 μg/mL, ABZ-SO 10 μg/mL, ABZ-BA 13.45, 26.9, 53.8 μg/mL, liver homogenate + 0.2% DMSO, n = 3", "description": "(§1) Protoscoleces (PSCs) from E. multilocularis were collected aseptically from alveolar echinococcosis obtained from the abdominal cavity of gerbils in Qinghai Research Key Laboratory for Echinococcosis, China. The specific operation steps were as follows: (1) dissect the successfully preserved Echinococcus protoscoleces gerbil model, isolate cysts and wash the residual liver tissue and blood with sterile Penicillin-Streptomycin solution (penicillin (1500 U/ mL) + streptomycin (1000 U/ mL)). (2) Place the clean cysts in sterile glassware, cut them into a slurry, filter the original head section with sterile gauze, and rinse them with Penicillin-Streptomycin solution 3 times. (3) Slightly rotate and shake the filtrate, absorb the suspended connective tissue, impurities, inactivated PSCs, and excess Penicillin-Streptomycin solution in the upper layer, repeat several times and finally concentrate the pure PSCs into the test tube. Viability was assessed by muscular movement (evaluated under an optical microscope), the motility of flame cells, and the exclusion test with methylene blue. The PSCs were incubated in an RPMI 1640 medium containing 0.20 mg/mL liver homogenous serous, 100 U/mL penicillin, 100 μg/mL streptomycin and 10% calf serum at 37°C in a 5% CO2 atmosphere at a concentration of (1000–2000) PSCs/mL.\n(§2) The PSCs were divided into blank control groups (Groups 1 and 2), positive control groups (Groups 3 and 4), and experimental groups (Groups 5 to 7). Group 1 was RPMI-1640 medium with 0.20 mg/mL liver homogenate; Group 2 was 0.2% DMSO medium with 0.2% DMSO; Group 3 was RPMI-1640 medium with 0.20 mg/mL liver homogenate and 0.2% DMSO, containing 10 μg/mL Albendazole; Group 4 was RPMI-1640 medium with 0.20 mg/mL liver homogenate and 0.2% DMSO, containing 10 μg/mL albendazole sulfoxide; Groups 5–7 were RPMI-1640 medium with 0.20 mg/mL liver homogenate and 0.2% DMSO, containing 13.45, 26.9 and 53.8 μg/mL ABZ-BA, with effective ABZ concentrations of 5, 10 and 20 μg/mL, respectively. The culture medium and drug were changed every 3 days for one week. PSCs samples (10 μL) were collected every day and stained with 0.4% trypan blue staining solution, observed under an inverted microscope, and photographed to record PSC mortality."}, "protoscolex (PSCs) [4]": {"system": "protoscolex (PSCs)", "assay": "Protoscolex microstructure by optical microscope and SEM", "type": "cell-based, E. multilocularis", "settings": "5 days after treatment", "description": "as §1, §2\nFor ultrastructural studies, 200 μL PSCs were taken from each group 5 days after treatment and fixed with 4% glutaraldehyde in sodium cacodylate buffer at 4°C for 72 hours. Samples were dehydrated by continuous incubation in increasing concentrations of ethanol (50–100%), and ethanol was removed by supercritical extraction. They were then sputter-coated with gold (100 Å thick) and examined on an FEI Quanta 200 scanning electron microscope operating at 20 kV."}, "[5]": {"settings": "background statement; cited from earlier work"}, "[6]": {"assay": "Systemic pharmacokinetics in SD rats (UHPLC-MS)", "type": "in vivo, Sprague-Dawley (SD) rats", "settings": "for Cmax: po, 25 mg/kg", "procedure": "A Dionex Ultimate 3000 RSLC system (Thermofisher) combined with an Accucore aQ C18 column (150 mm×2.1 mm, 2.6 μm, Thermo fisher) was used in the sample separation process. The separation speed was set at […] for all gradients. 1 μL of injection volume and a constant temperature of (25 ± 1°C were set for the column. The eluents were A, water with 0.1% formic acid (v/v) and B, methanol; the gradient program was as follows: 0–6 min, 8–40% B; 6–8 min, 40–100% B; 8–10 min, 100% B; 10–11 min, 100–8% B; 11–13 min, 8% B.\nHeated electro-spray ionization (HE-SI) was paired with a Q-Orbitrap MS in the MS analysis. The flow rate of auxiliary, sheath and sweep gas was set at 35, 10, and 1 (arbitrary unit), respectively. A full MS-ddMS^2 mode was used to perform the analysis. The damping gas in the C-trap and nitrogen was used to stabilize the spraying. Temperatures of 350°C and 320°C were set and kept for the auxiliary gas heater and capillary. Under negative mode, 3.0 kV was adopted for the spray voltage, 60 V was used for the S-lens RF level, 50 ms was used for the maximum injection time, and 3.0 ^e6 was set as the automatic gain control target. Full MS-ddMS^2 scan ranged from 150.0000 to 800.0000 m/z. Precise molecular weight […] was used for qualitative analysis, the corresponding peak area was used for quantitative analysis, and MS^2 fragments were used for further qualitative analysis.\nA cross-over design was employed with male SD rats (n = 7) to evaluate in vivo pharmacokinetics. The rats were subjected to fasting for one night before each administration and were fed 4 hours after administration. ABZ was administered by gavage (25 mg/kg). Blood was collected under isoflurane anesthesia at a flow rate of 2.0 mL/min. At 0.25, 0.5, 1, 2, 2.5, 3, 4, 6, 8, 12, and 24 hours after administration, 200–500 μL blood was collected from the orbital venous plexus and centrifuged at 13000 rpm for 5 min. The upper plasma was stored at—80°C for testing.\nPlasma samples were thawed at room temperature, and 100 μL was added to an equal volume of mass spectrometry grade methanol, vortexed for 1 min, and centrifuged again at 13000 rpm for 5 min. 100 μL of the supernatant were added to 100 μL of 200 ng/mL mebendazole IS solution, vortexed for 1 min, and centrifuged again at 13000 rpm for 5 min. The resulting sample was injected by UHPLC-HR-ESI-MS with an injection volume of 1 μL. The pharmacokinetic study of SD rats was performed according to the standards recommended by the \"Guidelines for the Care and Use of Laboratory Animals\" (Animal Laboratory Resources Institute, 1995) and was approved by the Institutional Animal Care and Use Committee of Qinghai University."}}, "note": "Entries after “also recorded” stand apart in the source; their conditions may differ. Like-named read-outs stand apart in the source and are kept apart here.", "data": [{"molecule": "CCCSc1ccc2nc(NC(=O)OC)[nH]c2c1", "note": "[ABZ, Albendazole]", "values": [{"measurement": "water solubility", "setting": "[1]; reason for dosing as suspension in 0.5% CMC-Na", "value": "water-insoluble"}, {"measurement": "physical state (WAXRD)", "setting": "[2]", "value": "crystalline"}, {"measurement": "inhibitory effect on PSC survival rate", "setting": "protoscolex (PSCs) [3]", "value": "time and concentration-dependent inhibitory effects"}, {"measurement": "PSC morphology under the SEM", "setting": "protoscolex (PSCs) [4]; 10 μg/mL", "value": "elongated and curled up"}, {"measurement": "PSC morphology under the optical microscope (OM)", "setting": "protoscolex (PSCs) [4]; 10 μg/mL", "value": "became vacuolar and transparent"}, {"measurement": "mortality of PSCs", "setting": "protoscolex (PSCs) [4]; 10 μg/mL, vs blank groups", "value": "significantly higher than in the blank groups"}, {"measurement": "oral bioavailability", "setting": "[5]", "value": "< 5", "unit": "%"}, {"measurement": "Cmax", "setting": "[6]; male, Sprague-Dawley, rat, in vivo, SD rats, oral 25mg/kg of API", "value": "76.4 ± 7.62", "unit": "ng/mL"}, {"measurement": "Cmax", "setting": "[6]; male, Sprague-Dawley, rat, in vivo, SD rats, oral 25 mg/kg, n = 7, Table 2", "value": "8.44 ± 3.6", "unit": "ng/mL"}, {"measurement": "Tmax", "setting": "[6]; male, Sprague-Dawley, rat, in vivo, SD rats, oral 25 mg/kg, n = 7", "value": "10.9 ± 1.95", "unit": "h"}, {"measurement": "AUC(0-inf)", "setting": "[6]; male, Sprague-Dawley, rat, in vivo, SD rats, oral 25 mg/kg, n = 7, Abz = ABZ content of ABZ-BA", "value": "101 ± 45.9", "unit": "ng·h/mL"}, {"measurement": "AUC(0-t)", "setting": "[6]; male, Sprague-Dawley, rat, in vivo, SD rats, oral 25 mg/kg, n = 7, Abz = ABZ content of ABZ-BA, read-out: AUC(0–24)", "value": "91.5 ± 42.7", "unit": "ng·h/mL"}, {"measurement": "MRT inf", "setting": "[6]; male, Sprague-Dawley, rat, in vivo, SD rats, oral 25 mg/kg, n = 7, read-out: MRT(0-∞)", "value": "13.9 ± 3.98", "unit": "h"}, {"measurement": "MRT last", "setting": "[6]; male, Sprague-Dawley, rat, in vivo, SD rats, oral 25 mg/kg, n = 7, read-out: MRT(0–24)", "value": "11.6 ± 0.91", "unit": "h"}, {"measurement": "Vd/F", "setting": "[6]; male, Sprague-Dawley, rat, in vivo, SD rats, oral 25 mg/kg, n = 7, read-out: Vz/F", "value": "1990 ± 1620", "unit": "L/kg"}, {"measurement": "half-life", "setting": "[6]; male, Sprague-Dawley, rat, in vivo, SD rats, oral 25 mg/kg, n = 7, read-out: t1/2z (converted)", "value": "5.51 ± 4.27", "unit": "h"}, {"measurement": "concentration at 8 h", "setting": "[6]; male, Sprague-Dawley, rat, in vivo, SD rats, oral 25mg/kg, lower limit of detection, read-out: blood concentration after oral administration for 8 hours", "value": "< 1", "unit": "ng/mL"}]}, {"molecule": "CCCSc1ccc2[nH]c(NC(=O)NCCCCOC(=O)CCC(C)C3CCC4C5C(O)CC6CC(O)CCC6(C)C5CC(O)C34C)nc2c1", "note": "(stereo not shown) [ABZ-BA]", "values": [{"measurement": "water solubility", "setting": "[1]", "value": "water-insoluble"}, {"measurement": "physical state (WAXRD)", "setting": "[2]", "value": "amorphous"}, {"measurement": "inhibitory effect on PSC survival rate", "setting": "protoscolex (PSCs) [3]", "value": "time and concentration-dependent inhibitory effects"}, {"measurement": "inhibitory effect / killing ability on PSCs compared with ABZ", "setting": "protoscolex (PSCs) [3]; in vitro", "value": "identical to that of ABZ; also recorded: the same as that of ABZ"}, {"measurement": "PSC morphology, lowest concentration", "setting": "protoscolex (PSCs) [4]; ABZ-BA 13.45 μg/mL", "value": "obvious shrinkage at the lowest concentration, but the suckers were still clearly visible"}, {"measurement": "PSC morphology, intermediate and high concentration", "setting": "protoscolex (PSCs) [4]; ABZ-BA 26.9 and 53.8 μg/mL", "value": "strikingly distinct from their original form, appearing in a disc state after death"}, {"measurement": "detectability in blood after oral administration for 8 hours", "setting": "[6]; SD rats, oral 25 mg/kg", "value": "easily detected"}, {"measurement": "pharmacokinetic behavior compared with Albenda", "setting": "[6]; rat, in vivo", "value": "superior to that of Albenda"}]}]}
